Measured values taken from EP0492930A2, “Transdermal delivery of dobutamine” (ELI LILLY AND COMPANY, priority 1990, dated 1992).

System: male beagle dogs
Test: In vivo transdermal delivery: cardiac contractility change in anesthetized dogs
Description: To corroborate the in vitro results obtained using formulations of the present invention, the ability of the present formulation to provide transdermal delivery of dobutamine lactobionate through the skin of a living dog was also studied.
Two male beagle dogs were anesthetized with 100 mg/kg of sodium phenobarbitol and prepared for monitoring of electrocardiogram, contractile tension, heart rate and mean arterial pressure. Dobutamine lactobionate was administered by an i.v. bolus (4, 8 and 16 mcg/kg). After each animal's response returned to baseline, 1.0 ml of a formulation containing 218.9 mg of dobutamine lactobionate (100 mg equivalents of dobutamine free base), 2.0 mg of sodium bisulfite, 10.0 mg of n-decyl methyl sulfoxide in 1 ml of water was applied to a 25 cm² shaved area in the groin-abdominal region of each dog. Cardiac contractility changes in each dog were then monitored for the next 3 to 5 hours.
Column 2 discloses the time elapsed from the time the formulation was applied and Column 3 discloses the percent change in contractility (from baseline) observed at the time value shown in Column 2.

CC(CCc1ccc(O)cc1)NCCc1ccc(O)c(O)c1 (racemic) [dobutamine lactobionate, (±)-N-[3-(4-hydroxyphenyl)-1-methylpropyl]-2-(3,4-dihydroxyphenyl)ethylamine]
% Change In Contractility (Method I (applied directly to skin), 20 min): 30% | % Change In Contractility (Method I (applied directly to skin), 30 min): 35% | % Change In Contractility (Method I (applied directly to skin), 60 min): 48% | % Change In Contractility (Method I (applied directly to skin), 90 min): 21% | % Change In Contractility (Method I (applied directly to skin), 120 min): 16% | % Change In Contractility (Method I (applied directly to skin), 180 min): 0% | % Change In Contractility (Method I (applied directly to skin, covered with plastic film), 10 min, 1.0 ml formulation (218.9 mg lactobionate, 10.0 mg n-decyl methyl sulfoxide) on 25 cm² shaved skin, change from baseline): 16% | % Change In Contractility (Method II (cellulose triacetate polymer patch), 10 min, 1.0 ml formulation (218.9 mg lactobionate, 10.0 mg n-decyl methyl sulfoxide), change from baseline): 10% | % Change In Contractility (Method II (patch), 20 min): 26% | % Change In Contractility (Method II (patch), 30 min): 24% | % Change In Contractility (Method II (patch), 60 min): 36% | % Change In Contractility (Method II (patch), 90 min): 41% | % Change In Contractility (Method II (patch), 120 min): 33% | % Change In Contractility (Method II (patch), 150 min): 25% | % Change In Contractility (Method II (patch), 180 min): 27% | % Change In Contractility (Method II (patch), 210 min): 22% | % Change In Contractility (Method II (patch), 240 min): 9% | % Change In Contractility (Method II (patch), 270 min): 9% | % Change In Contractility (Method II (patch), 300 min): 11%
